System: mature 3CL protease
Type: biochemical, SARS coronavirus

H-Thr-Ser-Ala-Val-Leu-Gln-Ser-Gly-Phe-Arg-Lys-NH2 [SO1]
disappearance of SO1: completely disappeared within 1 h

From PMC7126698 (Bioorganic & Medicinal Chemistry, 2008)
